Source: ChEMBL document CHEMBL1201862, “PubChem BioAssay data set” (2004)
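Protocol summary: plate cells (96-well), add compound at 5 concentrations, incubate 48 h, interpolate endpoints linearly. At the GI50, growth is halved.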 Activity calls are given as the source filed them. Rule as the data show it: active = GI50 up to about 1.1 µM and inactive = higher.

Legend:
Assay in all cases: DTP human tumour cell line panel, 48 h
HOP-92 = system: HOP-92
IGROV-1 = system: IGROV-1
HT-29 = system: HT-29
SK-MEL-28 = system: SK-MEL-28
ACHN = system: ACHN
EKVX = system: EKVX
HCT-116 = system: HCT-116
M14 = system: M14
OVCAR-4 = system: OVCAR-4
SF-268 = system: SF-268
U-251 = system: U-251
NCI-H23 = system: NCI-H23
HL-60 = system: HL-60
SN12C = system: SN12C
CAKI-1 = system: CAKI-1
HCC 2998 = system: HCC 2998
SF-539 = system: SF-539
RXF 393 = system: RXF 393

Measured: GI50

COC(=O)[C@]12CC=C3O[C@@H]4OC5(CCCCC5)O[C@@H]4C3[C@@H]1C(=O)CCC2=O (some centres undefined)
inactive: HOP-92 > 100 µM | IGROV-1 > 100 µM | HT-29 > 100 µM | SK-MEL-28 > 100 µM | ACHN > 100 µM | EKVX > 100 µM | HCT-116 > 100 µM | M14 > 100 µM | OVCAR-4 > 100 µM | SF-268 > 100 µM | U-251 > 100 µM | NCI-H23 > 100 µM | HL-60 > 100 µM | SN12C > 100 µM | CAKI-1 > 100 µM | HCC 2998 > 100 µM

Cc1[nH]c2ccccc2c1C1Cc2ccccc2N1C(=O)C#Cc1ccc([N+](=O)[O-])cc1 (centres undefined)
inactive: SF-539 > 100 µM | IGROV-1 > 100 µM | HT-29 > 100 µM | SK-MEL-28 > 100 µM | ACHN > 100 µM | EKVX > 100 µM | HCT-116 > 100 µM | M14 > 100 µM | OVCAR-4 43.7 µM | SF-268 > 100 µM | U-251 > 100 µM | RXF 393 6.81 µM | NCI-H23 > 100 µM | HL-60 > 100 µM | SN12C > 100 µM | HCC 2998 > 100 µM

CCN(c1ccc(Br)cc1)c1c(Br)c(=O)nc2ccccn12
inactive: HOP-92 57.3 µM | SF-539 > 100 µM | IGROV-1 > 100 µM | HT-29 > 100 µM | SK-MEL-28 > 100 µM | ACHN > 100 µM | EKVX 73.3 µM | HCT-116 > 100 µM | M14 > 100 µM | SF-268 > 100 µM | U-251 > 100 µM | NCI-H23 > 100 µM | SN12C > 100 µM | CAKI-1 93.1 µM

CN(C(=O)C12C3(C(=O)C(C)(C)C)C4C5(C#N)C3C1(C(=O)C(C)(C)C)C5C42C(=O)C(C)(C)C)C(C)(C)C (centres undefined)
inactive: HOP-92 30.8 µM | SF-539 > 50 µM | IGROV-1 > 50 µM | HT-29 > 50 µM | SK-MEL-28 > 50 µM | ACHN 25.2 µM | EKVX 43.3 µM | HCT-116 24.2 µM | M14 > 50 µM | OVCAR-4 31.6 µM | SF-268 32.5 µM | U-251 > 50 µM | NCI-H23 40.6 µM | HL-60 16.1 µM | SN12C > 50 µM | CAKI-1 33.8 µM | HCC 2998 > 50 µM

C=C(CO)CC(O)c1ccccc1 (centres undefined)
inactive: HOP-92 > 100 µM | SF-539 > 100 µM | IGROV-1 > 100 µM | HT-29 > 100 µM | SK-MEL-28 > 100 µM | ACHN > 100 µM | EKVX > 100 µM | HCT-116 > 100 µM | M14 > 100 µM | OVCAR-4 > 100 µM | SF-268 > 100 µM | U-251 > 100 µM | RXF 393 > 100 µM | NCI-H23 > 100 µM | HL-60 > 100 µM | SN12C > 100 µM | HCC 2998 > 100 µM

O=C1C2CN(Cc3ccccc3)CC1CN(CC1CC1)C2
inactive: HOP-92 > 100 µM | SF-539 > 100 µM | IGROV-1 > 100 µM | HT-29 > 100 µM | SK-MEL-28 > 100 µM | ACHN > 100 µM | EKVX > 100 µM | M14 > 100 µM | OVCAR-4 > 100 µM | SF-268 > 100 µM | U-251 > 100 µM | RXF 393 > 100 µM | NCI-H23 > 100 µM | HL-60 > 100 µM | SN12C > 100 µM | CAKI-1 > 100 µM

CC(=O)OCCOCNC(=S)N/N=C/c1ccc([N+](=O)[O-])o1
inactive: SF-539 43.9 µM | IGROV-1 > 100 µM | HT-29 30.3 µM | SK-MEL-28 98.4 µM | ACHN 60.5 µM | EKVX > 100 µM | HCT-116 40 µM | M14 36.6 µM | OVCAR-4 > 100 µM | SF-268 29.5 µM | U-251 83.9 µM | RXF 393 > 100 µM | NCI-H23 26.7 µM | HL-60 11.6 µM | SN12C 74.5 µM | HCC 2998 40.7 µM

c1cc(-c2cn3c(n2)SCC3)ccn1
inactive: HOP-92 > 100 µM | SF-539 > 44.9 µM | IGROV-1 > 100 µM | HT-29 > 100 µM | ACHN > 100 µM | EKVX > 68.9 µM | HCT-116 > 42.4 µM | M14 > 70.8 µM | OVCAR-4 > 100 µM | SF-268 > 100 µM | U-251 > 73.3 µM | NCI-H23 > 100 µM | HL-60 > 38.1 µM | SN12C > 100 µM | CAKI-1 > 100 µM | HCC 2998 > 100 µM

COc1ccccc1NC(=O)C1=C(C)NC(C)=C(C(=O)Nc2ccccc2OC)C1c1ccc(C(C)C)cc1
inactive: HOP-92 82.4 µM | SF-539 > 100 µM | IGROV-1 > 100 µM | HT-29 > 100 µM | SK-MEL-28 80.5 µM | ACHN 65.9 µM | EKVX 33 µM | HCT-116 13.8 µM | M14 > 100 µM | OVCAR-4 16.8 µM | SF-268 > 100 µM | U-251 84.3 µM | NCI-H23 > 100 µM | SN12C > 100 µM | CAKI-1 > 100 µM | HCC 2998 63.7 µM
